Data: ChEMBL document CHEMBL1147871, “Synthesis and antioxidant activity of new homocarnosine beta-cyclodextrin conjugates” (Eur J Med Chem, 2007)

Key:
Type in all cases: functional
[1] = Effect on copper-induced human LDL peroxidation assessed as inhibition of malonaldehyde production at 2 uM after 4 hrs; parameters: scale not given: the % may be the effect or the level left
[2] = Effect on copper-induced human LDL peroxidation assessed as inhibition of malonaldehyde production at 5 uM after 4 hrs; parameters: scale not given: the % may be the effect or the level left
[3] = Effect on copper-induced human LDL peroxidation assessed as inhibition of malonaldehyde production at 10 uM after 4 hrs; parameters: scale not given: the % may be the effect or the level left
[4] = Effect on copper-induced human LDL peroxidation assessed as inhibition of malonaldehyde production at 20 uM after 4 hrs; parameters: scale not given: the % may be the effect or the level left
[5] = Effect on copper-induced human LDL peroxidation assessed as inhibition of malonaldehyde production at 50 uM after 4 hrs; parameters: scale not given: the % may be the effect or the level left
[6] = Effect on copper-induced human LDL peroxidation assessed as inhibition of malonaldehyde production at 100 uM after 4 hrs; parameters: scale not given: the % may be the effect or the level left
[7] = Effect on copper-induced human LDL peroxidation assessed as inhibition of malonaldehyde production at 200 uM after 4 hrs; parameters: scale not given: the % may be the effect or the level left
[8] = Protective effect on copper-induced LDL oxidation at 20:1 copper to drug ratio relative to 40 uM copper
[9] = Protective effect on copper-induced LDL oxidation at 1:1.25 copper to drug ratio relative to 40 uM copper
[10] = Protective effect on copper-induced LDL oxidation at 1:2.5 copper to drug ratio relative to 40 uM copper
[11] = Protective effect on copper-induced LDL oxidation at 1:5 copper to drug ratio relative to 40 uM copper
[12] = Protective effect on copper-induced LDL oxidation at 8:1 copper to drug ratio relative to 40 uM copper
[13] = Protective effect on copper-induced LDL oxidation at 4:1 copper to drug ratio relative to 40 uM copper
[14] = Protective effect on copper-induced LDL oxidation at 2:1 copper to drug ratio relative to 40 uM copper

`NCCC(=O)N[C@@H](Cc1c[nH]cn1)C(=O)O` showed an Activity [1] of 0.28%, an Activity [2] of 0.93% and an Activity [3] of 1.38%. It also gave an Activity [4] of 2.72%, an Activity [5] of 9.13% and an Activity [6] of 15.1%. For the same compound, the Activity [7] was 22.5%, the Activity [8] was 0% and the Activity [9] was 9%. For the same compound, the Activity [10] was 15%, the Activity [11] was 22% and the Activity [12] was 1%. It also gave an Activity [13] of 1% and an Activity [14] of 3%.

Compound `NCCCC(=O)N[C@@H](Cc1cnc[nH]1)C(=O)O` has an Activity [1] of 0.31%, an Activity [2] of 1.02% and an Activity [3] of 1.86%. For the same compound, the Activity [4] was 2.5%, the Activity [5] was 8.28% and the Activity [6] was 12.1%. The Activity [7] was 17.6%, the Activity [8] was 0% and the Activity [9] was 8%. The Activity [10] was 12%, the Activity [11] was 18% and the Activity [12] was 1%. For the same compound, the Activity [13] was 2% and the Activity [14] was 3%.

With `OC[C@H]1O[C@@H]2O[C@H]3[C@H](O)[C@@H](O)[C@@H](O[C@H]4[C@H](O)[C@@H](O)[C@@H](O[C@H]5[C@H](O)[C@@H](O)[C@@H](O[C@H]6[C@H](O)[C@@H](O)[C@@H](O[C@H]7[C@H](O)[C@@H](O)[C@@H](O[C@H]8[C@H](O)[C@@H](O)[C@@H](O[C@H]1[C@H](O)[C@H]2O)O[C@@H]8CO)O[C@@H]7CO)O[C@@H]6CO)O[C@@H]5CO)O[C@@H]4CO)O[C@@H]3CO` the Activity [1] was 0.11%, the Activity [2] was 0.38% and the Activity [3] was 0.65%. For the same compound, the Activity [4] was 1.26%, the Activity [5] was 3.87% and the Activity [6] was 6.94%. For the same compound, the Activity [7] was 10.7%.
